Test system: Human arterial plaque samples
Assay: in vitro dissolution and digestion of atherosclerotic plaque specimens (percent reduction of plaque weight)
Settings: EDTA 0.5-2 mg/ml, β-cyclodextrin 1-100 mMol, tPA 0.5-2 mg/ml, p<0.05
Method: Atherosclerotic plaques from surgical endarterectomies were obtained from various anatomic sites. All experiments were performed by cutting a given plaque into equal parts by weight then exposing them to various agents alone and in combination to determine the most optimal digestion solution. The optimal concentration and conditions for plaque dissolution and digestion were determined for ethylenediaminetetraacetic acid (EDTA), β-cyclodextrin, tPA, collagenase type I, III, IV, and V. Weights of each specimen were obtained prior to exposure of each solution and at different time points to determine percent of digested versus undigested plaque. Additional variables that were assessed and optimized include: 1) different combinations of EDTA, β-cyclodextrin, and the collagenases, 2) temperature, 3) pH, and 4) agitation.
Atherosclerotic plaques were obtained from patients undergoing endarterectomies. The optimal concentration and conditions for plaque dissolution and digestion were determined for ethylenediaminetetraacetic acid (EDTA), β-cyclodextrin, and collagenase type I, III, IV, and V. Variables that were assessed included: 1) combination of different agents, 2) time, 3) temperature, 4) pH, and 5) agitation. Weight of each specimen was measured at different time points to determine percent of undigested plaque. […]

O=C(O)CN(CCN(CC(=O)O)CC(=O)O)CC(=O)O [EDTA, ethylenediaminetetraacetic acid]
reduction in plaque weight, agent alone: 15%

OC[C@H]1O[C@@H]2O[C@H]3[C@H](O)[C@@H](O)[C@@H](O[C@H]4[C@H](O)[C@@H](O)[C@@H](O[C@H]5[C@H](O)[C@@H](O)[C@@H](O[C@H]6[C@H](O)[C@@H](O)[C@@H](O[C@H]7[C@H](O)[C@@H](O)[C@@H](O[C@H]8[C@H](O)[C@@H](O)[C@@H](O[C@H]1[C@H](O)[C@H]2O)O[C@@H]8CO)O[C@@H]7CO)O[C@@H]6CO)O[C@@H]5CO)O[C@@H]4CO)O[C@@H]3CO [β-cyclodextrin]
reduction in plaque weight, agent alone: 2%

Source: patent US9707281B2, “Pharmaceutical compositions and methods for digesting atherosclerotic plaques” (Northwestern University, priority 2010, dated 2017)
